Laboratory results reported in BindingDB's records for doi:10.1021/jm9704863 (Cor Therapeutics, 1998).

Tests used:
[1] = target: Integrin alpha-IIb/beta-3 (Homo sapiens, UniProt P08514+P05106); experiment: Inhibition of platelet aggregation induced by 20 uM adenosine 5'-diphosphate (ADP) in human platelet rich plasma (h-PRP).
[2] = Inhibition of 20 uM ADP-induced platelet aggregation in human platelet-rich plasma

Chain of Integrin alpha-IIb/beta-3 (P05106 27-788 limits assumed): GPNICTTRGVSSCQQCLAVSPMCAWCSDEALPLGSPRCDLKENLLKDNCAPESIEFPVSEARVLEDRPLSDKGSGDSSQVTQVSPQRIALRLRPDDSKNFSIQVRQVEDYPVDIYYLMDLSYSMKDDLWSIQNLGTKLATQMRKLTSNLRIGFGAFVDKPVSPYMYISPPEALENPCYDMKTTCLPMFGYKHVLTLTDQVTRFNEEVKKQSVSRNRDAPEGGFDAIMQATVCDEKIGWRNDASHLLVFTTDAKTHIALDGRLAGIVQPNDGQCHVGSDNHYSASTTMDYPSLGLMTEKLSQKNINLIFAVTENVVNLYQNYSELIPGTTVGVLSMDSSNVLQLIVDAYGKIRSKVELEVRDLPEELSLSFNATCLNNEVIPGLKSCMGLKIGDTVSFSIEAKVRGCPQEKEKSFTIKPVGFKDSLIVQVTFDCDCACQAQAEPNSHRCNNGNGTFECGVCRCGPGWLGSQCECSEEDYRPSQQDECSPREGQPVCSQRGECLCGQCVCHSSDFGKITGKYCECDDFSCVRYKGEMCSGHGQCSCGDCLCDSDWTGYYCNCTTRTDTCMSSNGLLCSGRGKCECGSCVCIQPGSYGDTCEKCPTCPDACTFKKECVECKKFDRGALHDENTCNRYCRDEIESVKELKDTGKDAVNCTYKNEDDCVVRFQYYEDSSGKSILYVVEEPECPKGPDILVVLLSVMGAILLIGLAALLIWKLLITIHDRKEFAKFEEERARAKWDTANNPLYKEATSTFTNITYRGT
Chain of Integrin alpha-IIb/beta-3 (P08514 32-887 limits assumed): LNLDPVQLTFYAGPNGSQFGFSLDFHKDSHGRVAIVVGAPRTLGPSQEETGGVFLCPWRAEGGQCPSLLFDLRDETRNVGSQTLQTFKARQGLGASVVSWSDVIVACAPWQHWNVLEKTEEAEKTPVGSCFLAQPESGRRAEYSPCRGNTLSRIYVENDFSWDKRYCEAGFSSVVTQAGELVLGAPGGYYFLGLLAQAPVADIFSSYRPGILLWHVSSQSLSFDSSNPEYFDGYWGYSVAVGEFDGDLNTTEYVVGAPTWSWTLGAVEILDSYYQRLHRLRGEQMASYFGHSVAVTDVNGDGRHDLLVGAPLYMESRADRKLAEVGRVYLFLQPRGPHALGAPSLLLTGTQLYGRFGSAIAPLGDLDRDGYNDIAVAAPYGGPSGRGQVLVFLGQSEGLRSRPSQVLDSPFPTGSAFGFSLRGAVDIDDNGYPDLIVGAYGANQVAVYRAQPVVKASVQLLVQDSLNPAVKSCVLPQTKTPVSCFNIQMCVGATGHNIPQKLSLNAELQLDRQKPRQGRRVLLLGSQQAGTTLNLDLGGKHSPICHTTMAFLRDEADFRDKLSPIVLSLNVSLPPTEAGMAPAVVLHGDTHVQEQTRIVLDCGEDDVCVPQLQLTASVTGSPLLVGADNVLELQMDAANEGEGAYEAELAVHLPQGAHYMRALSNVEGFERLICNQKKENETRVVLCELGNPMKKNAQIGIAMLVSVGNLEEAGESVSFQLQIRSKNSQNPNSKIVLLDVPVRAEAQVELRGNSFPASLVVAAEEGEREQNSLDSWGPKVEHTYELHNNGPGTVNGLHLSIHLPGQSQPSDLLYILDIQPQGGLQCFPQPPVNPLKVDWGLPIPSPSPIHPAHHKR
Chain of Integrin alpha-IIb/beta-3 (P08514 891-1039 limits assumed): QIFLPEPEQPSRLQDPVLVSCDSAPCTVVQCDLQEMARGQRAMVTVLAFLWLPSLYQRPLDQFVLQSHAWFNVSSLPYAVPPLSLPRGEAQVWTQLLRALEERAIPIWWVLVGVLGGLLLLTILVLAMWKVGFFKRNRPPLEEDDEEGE

Row | SMILES | IC50 [1] [nM] | IC50 [2] [nM]
1 | CN(CC(=O)NC(CC(=O)O)c1ccccc1)C(=O)c1cc2cc(C(=N)N)ccc2[nH]1 (configuration not stated) [3-{2-[(5-Carbamimidoyl-1H-indole-2-carbonyl)-methyl-amino]-acetylamino}-3-phenyl-propionic acid] | 25000 | 
2 | CC(CC(=O)NC(CC(=O)O)c1ccccc1)NC(=O)c1cc2cc(C(=N)N)ccc2[nH]1 (configuration not stated) [3-{3-[(5-Carbamimidoyl-1H-indole-2-carbonyl)-amino]-butyrylamino}-3-phenyl-propionic acid] | 5000 | 
3 | N=C(N)c1ccc2oc(C(=O)NCCC(=O)NC(CC(=O)O)c3cc(F)ccc3F)cc2c1 (configuration not stated) [3-{3-[(5-Carbamimidoyl-benzofuran-2-carbonyl)-amino]-propionylamino}-3-(2,5-difluoro-phenyl)-propionic acid] | 300 | 
4 | N=C(N)c1ccc2[nH]c(C(=O)NCC(=O)NC(CC(=O)O)c3ccccc3)cc2c1 (configuration not stated) [3-{2-[(5-Carbamimidoyl-1H-indole-2-carbonyl)-amino]-acetylamino}-3-phenyl-propionic acid] | 50000 | 
5 | CN(CCC(=O)NC(CC(=O)O)c1ccccc1)C(=O)c1cc2cc(C(=N)N)ccc2[nH]1 (configuration not stated) [3-{3-[(5-Carbamimidoyl-1H-indole-2-carbonyl)-methyl-amino]-propionylamino}-3-phenyl-propionic acid] | 5000 | 
6 | N=C(N)c1ccc2oc(C(=O)NCCC(=O)NC(CC(=O)O)c3cc(F)cc(F)c3)cc2c1 (configuration not stated) [3-{3-[(5-Carbamimidoyl-benzofuran-2-carbonyl)-amino]-propionylamino}-3-(3,5-difluoro-phenyl)-propionic acid] | 350 | 
7 | N=C(N)c1ccc2oc(C(=O)NCCC(=O)NC(CC(=O)O)C(F)(F)F)cc2c1 (configuration not stated) [3-{3-[(5-Carbamimidoyl-benzofuran-2-carbonyl)-amino]-propionylamino}-4,4,4-trifluoro-butyric acid] | 250 | 
8 | COc1ccc(C(CC(=O)O)NC(=O)CCNC(=O)c2cc3cc(C(=N)N)ccc3o2)cc1OC (configuration not stated) [3-{3-[(5-Carbamimidoyl-benzofuran-2-carbonyl)-amino]-propionylamino}-3-(3,4-dimethoxy-phenyl)-propionic acid] | 300 | 
9 | N=C(N)c1ccc2oc(C(=O)NCCC(=O)NC(CC(=O)O)c3ccccc3)cc2c1 (configuration not stated) [3-{3-[(5-Carbamimidoyl-benzofuran-2-carbonyl)-amino]-propionylamino}-3-phenyl-propionic acid] | 250 | 
10 | N=C(N)c1ccc2oc(C(=O)NCCC(=O)NC(CC(=O)O)c3ccc(F)c(F)c3)cc2c1 (configuration not stated) [3-{3-[(5-Carbamimidoyl-benzofuran-2-carbonyl)-amino]-propionylamino}-3-(3,4-difluoro-phenyl)-propionic acid] | 500 | 
11 | N=C(N)c1ccc2[nH]c(C(=O)Nc3cccc(C(=O)NC(CC(=O)O)c4ccccc4)c3)cc2c1 (configuration not stated) [3-{3-[(5-Carbamimidoyl-1H-indole-2-carbonyl)-amino]-benzoylamino}-3-phenyl-propionic acid] | 25000 | 
12 | CCCCS(=O)(=O)NC(CNC(=O)CCNC(=O)c1cc2ccc(C(=N)N)cc2[nH]1)C(=O)O (configuration not stated) [2-(Butane-1-sulfonylamino)-3-{3-[(6-carbamimidoyl-1H-indole-2-carbonyl)-amino]-propionylamino}-propionic acid] | 55 | 
13 | CCCCS(=O)(=O)NC(CNC(=O)CCNC(=O)c1[nH]nc2cc(C(=N)N)ccc12)C(=O)O (configuration not stated) [2-(Butane-1-sulfonylamino)-3-{3-[(6-carbamimidoyl-1H-indazole-3-carbonyl)-amino]-propionylamino}-propionic acid] | 53 | 
14 | N=C(N)c1ccc2[nH]c(C(=O)NC(CC(=O)NC(CC(=O)O)c3ccccc3)C(F)(F)F)cc2c1 (configuration not stated) [3-{3-[(5-Carbamimidoyl-1H-indole-2-carbonyl)-amino]-4,4,4-trifluoro-butyrylamino}-3-phenyl-propionic acid] | 50000 | 
15 | N=C(N)c1ccc2oc(C(=O)NCCC(=O)NC(CC(=O)O)c3cccnc3)cc2c1 (configuration not stated) [3-{3-[(5-Carbamimidoyl-benzofuran-2-carbonyl)-amino]-propionylamino}-3-pyridin-3-yl-propionic acid] | 200 | 
16 | CC(C)(NC(=O)c1cc2cc(C(=N)N)ccc2[nH]1)C(=O)NC(CC(=O)O)c1ccccc1 (configuration not stated) [3-{2-[(5-Carbamimidoyl-1H-indole-2-carbonyl)-amino]-2-methyl-propionylamino}-3-phenyl-propionic acid] | 250000 | 
17 | N=C(N)c1ccc2[nH]c(C(=O)NCCC(=O)NC(CC(=O)O)c3ccccc3)cc2c1 (configuration not stated) [3-{3-[(5-Carbamimidoyl-1H-indole-2-carbonyl)-amino]-propionylamino}-3-phenyl-propionic acid] | 8000 | 

The next lines start with the values.

Row | IC50 [1] [nM] | IC50 [2] [nM] | SMILES
18 | 2000 |  | N=C(N)c1ccc2oc(C(=O)N3CCC[C@@H]3C(=O)NC(CC(=O)O)c3ccccc3)cc2c1 (stereo partly drawn) [3-{[(R)-1-(5-Carbamimidoyl-benzofuran-2-carbonyl)-pyrrolidine-2-carbonyl]-amino}-3-phenyl-propionic acid]
19 | 35 |  | CCCCS(=O)(=O)N[C@@H](CNC(=O)CCNC(=O)c1cc2cc(C(=N)N)ccc2o1)C(=O)O [(S)-2-(Butane-1-sulfonylamino)-3-{3-[(5-carbamimidoyl-benzofuran-2-carbonyl)-amino]-propionylamino}-propionic acid]
20 | 25000 |  | N=C(N)c1ccc2[nH]c(C(=O)N3CCC(C(=O)NC(CC(=O)O)c4ccccc4)CC3)cc2c1 (configuration not stated) [3-{[1-(5-Carbamimidoyl-1H-indole-2-carbonyl)-piperidine-4-carbonyl]-amino}-3-phenyl-propionic acid]
21 | 250 |  | N=C(N)c1ccc2oc(C(=O)N3CCCC(C(=O)NC(CC(=O)O)c4ccccc4)C3)cc2c1 (configuration not stated) [3-{[1-(5-Carbamimidoyl-benzofuran-2-carbonyl)-piperidine-3-carbonyl]-amino}-3-phenyl-propionic acid]
22 | 5000 |  | N=C(N)c1ccc2oc(C(=O)N3Cc4ccccc4CC3C(=O)NC(CC(=O)O)c3ccccc3)cc2c1 (configuration not stated) [3-{[2-(5-Carbamimidoyl-benzofuran-2-carbonyl)-1,2,3,4-tetrahydro-isoquinoline-3-carbonyl]-amino}-3-phenyl-propionic acid]
23 | 1350 |  | N=C(N)c1ccc2cc(C(=O)NCCC(=O)NC(CC(=O)O)c3ccccc3)[nH]c2c1 (configuration not stated) [3-{3-[(6-Carbamimidoyl-1H-indole-2-carbonyl)-amino]-propionylamino}-3-phenyl-propionic acid]
24 | 300 |  | C#CC(CC(=O)O)NC(=O)CCNC(=O)c1cc2cc(C(=N)N)ccc2o1 (configuration not stated) [3-{3-[(5-Carbamimidoyl-benzofuran-2-carbonyl)-amino]-propionylamino}-pent-4-ynoic acid]
25 | 2200 |  | N=C(N)c1ccc2c(C(=O)NCCC(=O)NC(CC(=O)O)c3ccccc3)c[nH]c2c1 (configuration not stated) [3-{3-[(6-Carbamimidoyl-1H-indole-3-carbonyl)-amino]-propionylamino}-3-phenyl-propionic acid]
26 | 5000 |  | N=C(N)c1ccc2[nH]c(C(=O)N3CCC[C@H]3C(=O)NC(CC(=O)O)c3ccccc3)cc2c1 (stereo partly drawn) [3-{[(S)-1-(5-Carbamimidoyl-1H-indole-2-carbonyl)-pyrrolidine-2-carbonyl]-amino}-3-phenyl-propionic acid]
27 | 600 |  | N=C(N)c1ccc2oc(C(=O)NCCC(=O)NC(CCc3c[nH]c4ccccc34)CC(=O)O)cc2c1 (configuration not stated) [3-{3-[(5-Carbamimidoyl-benzofuran-2-carbonyl)-amino]-propionylamino}-5-(1H-indol-3-yl)-pentanoic acid]
28 |  | 25 | N=C(N)c1ccc2oc(C(=O)NCCC(=O)NC[C@H](NS(=O)(=O)c3ccc(I)cc3)C(=O)O)cc2c1 [(S)-3-{3-[(5-Carbamimidoyl-benzofuran-2-carbonyl)-amino]-propionylamino}-2-(4-iodo-benzenesulfonylamino)-propionic acid]
29 | 200 |  | N=C(N)c1ccc2oc(C(=O)NCCC(=O)NC[C@H](N)C(=O)O)cc2c1 [(S)-2-Amino-3-{3-[(5-carbamimidoyl-benzofuran-2-carbonyl)-amino]-propionylamino}-propionic acid]
30 | 250 |  | CN(CCC(=O)NC(CC(=O)O)c1ccccc1)C(=O)c1cc2cc(C(=N)N)ccc2o1 (configuration not stated) [3-{3-[(5-Carbamimidoyl-benzofuran-2-carbonyl)-methyl-amino]-propionylamino}-3-phenyl-propionic acid]
31 |  | 65 | CN(C)c1cccc2c(S(=O)(=O)N[C@@H](CNC(=O)CCNC(=O)c3cc4cc(C(=N)N)ccc4o3)C(=O)O)cccc12 [(S)-3-{3-[(5-Carbamimidoyl-benzofuran-2-carbonyl)-amino]-propionylamino}-2-(5-dimethylamino-naphthalene-1-sulfonylamino)-propionic acid]
32 | 630 |  | N=C(N)c1ccc2c(C(=O)NCCC(=O)NC(CC(=O)O)c3ccccc3)[nH]nc2c1 (configuration not stated) [3-{3-[(6-Carbamimidoyl-1H-indazole-3-carbonyl)-amino]-propionylamino}-3-phenyl-propionic acid]
